In US5464865A, “4-aryl- and 4-arylthio-5-hydroxy-2(5H)-furanones as inhibitors of phospholipase A2” (Ortho Pharmaceutical Corporation, priority 1993, dated 1995):

Assays:
PLA2 = conditions: literature; cited from earlier work
[1] = test system: TPA-induced inflammation in the mouse ear; experiment: Topical anti-inflammatory activity: TPA-induced inflammation (edema) in the mouse ear; format: in vivo, mouse (male CD-1); conditions: Mus musculus, @ 100 μg, 5-6 h after TPA
Procedure: The topical anti-inflammatory activity of the compounds is determined by measuring the degree of inhibition of TPA-induced inflammation in the mouse ear, using essentially the procedure of C. Van Arman, Clin. Pharmacol. Ther., 16, 900 (1974). Male CD-1 mice are used at seven to nine weeks of age. 12-O-tetradecanoylphorbol acetate ([…] in 20 μl of acetone) is dispensed onto the dorsum of the left ear of each mouse, and the right ear is left untreated. Ten mice so treated serve as the control group. […]
After five to six hours, the animals are sacrificed by CO2 inhalation, the ears are removed, and 7 mm circular punch biopsies of are taken from each ear and weighed. The difference in biopsy weight between treated and untreated ears is determined, and the degree of anti-inflammatory activity is expressed in terms of the percent inhibition of ear weight increase relative to the control group. In multiple-dose experiments, varying amounts of the compound to be tested are applied along with the TPA and the results are expressed as the ED50, the dose at which a 50% inhibition of weight gain is observed.

[2] = target: T1, human platelet phospholipase A2 (Homo sapiens, UniProt P14555); experiment: Inhibition of human platelet phospholipase A2 (14C-oleate E. coli substrate); format: biochemical; conditions: for inhibition at 50 µM: read-out: Inhibition of PLA2, % Inhibition @ 50 μM; for IC50: pH 7.0, 37°, 60 min incubation, read-out: Inhibition of PLA2, IC50
T1 construct: a preparation of human platelet phospholipase A2; from tissue; host or cells: human platelets
T1 sequence (P14555 21-144): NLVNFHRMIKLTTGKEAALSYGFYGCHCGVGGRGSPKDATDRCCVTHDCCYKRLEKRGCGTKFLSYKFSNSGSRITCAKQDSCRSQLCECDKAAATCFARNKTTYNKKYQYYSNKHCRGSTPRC
Procedure: The activity of the compounds of the invention against phospholipase A2 is determined using a preparation of human platelet phospholipase A2 with a specific activity of 180 nmol/min/mg as the enzyme source. Polypropylene 15-ml test tubes are utilized as the reaction vessels. All drug samples are run in duplicate, with "blank" and "control" (no test compound) groups run in triplicate. […] Test compounds are dissolved in DMSO, and diluted to a projected final concentration of either 50 or 10 μM in 550 μl HEPES buffer at pH 7.0. A 1:7 dilution of human platelet PLA2 in HEPES buffer (5 μl) is added to each test tube, followed by gentle vortexing for 3 seconds. The reaction tubes containing drug, buffer, and enzyme are preincubated for 15 min at 37°, followed by the addition of 25 μl of ^14 C-oleate E. coli substrate. Details regarding this substrate may be found in a publication by S. Ghosh and R. Franson, Biochem. Cell. Biol., 70, 43 (1992), and references therein.
The tubes are immediately vortexed at moderate speed for 3 sec, followed by a 60 min incubation at 37° in a shaking water bath. The reaction is stopped by the addition of 3 ml of a 1:2 chloroform-methanol mixture. Additional water (1.5 ml) and chloroform (1.0 ml) are added, followed by vortexing. The lower phase is removed with a polypropylene transfer pipette, and transferred to a 13×100 mm polypropylene test tube. The organic solvent is evaporated with a stream of nitrogen, the residue is redissolved in 30 μl of a 9:1 chloroform-methanol mixture, and the solution is spotted on a channeled polyester-backed silica gel TLC plate, such as those available under the trade name PE SIL G available from Whatman Inc, Clifton, N.J.
The plate is developed with an 80:20:1 mixture of petroleum ether-diethyl ether-acetic acid. […] The plate is scored above the origin, cut along the score with scissors, and the reactant (origin) and product portions of each channel are put into separate scintillation vials. To each vial is added a scintillation cocktail (15 ml), preferably that sold under the trademark ECOLUME by ICN Biomedicals, Irvine Calif. The vials are shaken vigorously for 5 sec, and the radioactive ^14 C in each vial is measured with a scintillation counter, which provides the counts-per-minute (cpm) for each sample. The obtained cpm values are corrected for the "blank" values.
The percentage of phospholipid hydrolyzed is calculated by the formula:
Phospholipid converted=100×cpm products / (cpm products+cpm
The inhibition of phospholipase A2 by the test compounds is expressed as a percent inhibition relative to the control group:
% Inhibition=[…]

inhibition at 50 µM [2] [%] | IC50 [2] [µM] | SMILES | inhibition of PLA2 (PLA2) | nature of PLA2 inhibition (PLA2) | inhibition in vivo at 100 µg/ear [1] [%]
– | – | CC1=C(CC/C(C)=C/CCC2=CCC(C3=CC(=O)OC3O)OC2O)C(C)(C)CCC1 (centres unmarked) [Manoalide, manoalide] | potent inhibitor of PLA2 | irreversible nature of PLA2 inhibition | –
100 | 5 | CCCCCC/C=C/c1ccc(C2=CC(=O)OC2O)cc1 (centres unmarked) [Example 35, (E)-5-Hydroxy-4-(4-(1-octenyl)phenyl)-2(5H)-furanone] | – | – | 30
94 | – | CC1=C(CC/C=C(\C)COc2ccc(C3=CC(=O)OC3O)cc2)C(C)(C)CCC1 (centres unmarked) [Example 15, (E)-5-Hydroxy-4-(4-(2-methyl-5-(2,6,6-trimethyl-1-cyclohexen-1-yl)-2-pentenyloxy)phenyl)-2(5H)-furanone] | – | – | 49
100 | 5 | CCCCCCC#Cc1ccc(C2=CC(=O)OC2O)cc1 (centres unmarked) [Example 54, 5-Hydroxy-4-(4-(1-octynyl)phenyl)-2(5H)-furanone] | – | – | 9
98 | 5 | CCCCCCCCSc1ccc(C2=CC(=O)OC2O)cc1 (centres unmarked) [Example 19, 5-Hydroxy-4-(4-(octylthio)phenyl)-2(5H)furanone] | – | – | 20
30 | – | O=C1C=C(c2cccc(Oc3ccccc3)c2)C(O)O1 (centres unmarked) [Example 43, 5-Hydroxy-4-(3-phenoxyphenyl)-2(5H)-furanone] | – | – | 52
67 | 1.4 | CC1=C(CCCCCCCOc2ccc(C3=CC(=O)OC3O)cc2)C(C)(C)CCC1 (centres unmarked) [Example 27, 5-Hydroxy-4-(4-(7-(2,6,6-trimethyl-1-cyclohexen-1-30 yl)heptyloxy)phenyl)-2(5H)-furanone] | – | – | 35

SMILES | inhibition at 50 µM [2] [%] | IC50 [2] [µM] | inhibition of PLA2 (PLA2) | nature of PLA2 inhibition (PLA2) | inhibition in vivo at 100 µg/ear [1] [%]
O=C1C=C(c2ccccc2)C(O)O1 (centres unmarked) [Example 42, 5-Hydroxy-4-phenyl-2(5H)-furanone] | 9 | – | – | – | 45
